Test results from patent US9907790B2, “Solid forms of an ASK1 inhibitor” (Gilead Sciences, Inc., priority 2014, dated 2018).
≈ marks a conversion by molar mass, not a printed value.

Experiments:
Format in all cases: physicochemical
[1] = Form change on heating, drying or exposure to ambient conditions; settings: for form change at ambient conditions: ambient temperature and humidity / storage at ambient conditions; for form change upon drying: drying (air-drying at RT)
Text: Form V has only been truly isolated by growth of single crystals.
Isolated solids were dried with filter paper to remove residual solvents and analyzed by DSC, TGA and KF. […] (FIG. 45).
The sample was stirred for more than two months before being placed into storage without agitation and at ambient conditions. […] The material was collected by vacuum filtration and dried under ambient conditions. […] (FIG. 48).

[2] = Competition slurries between crystalline forms; settings: ethanol, agitating overnight
[3] = High humidity stress test at 75% RH/RT
[4] = Stable form screen of Compound I (suspension in solvents at RT, solids analysed by XRPD); settings: starting from Compound I Form I
Experimental: Compound I Form I was suspended with stirring in capped glass vials at RT. Samples from the suspensions were centrifuged/filtered and the isolated solids and liquids were analyzed. Solids were analyzed by XRPD and liquids were analyzed for solubility by […]. Sampling and analysis were performed after one day and greater than fourteen days.

[5] = Solubility of Compound I in EtOH; settings: ethanol, organic solvent or mixture
Experimental: The crystallization was then continued in line with Method 1 outlined above. After filtration, the Form I solids are dried in a vacuum oven at about 45-50° C.

Cc1cc(F)c(C(=O)Nc2cccc(-c3nncn3C(C)C)n2)cc1-n1cnc(C2CC2)c1 [Compound I Form II, 5-(4-cyclopropyl-1H-imidazol-1-yl)-N-(6-(4-isopropyl-4H-1,2,4-triazol-3-yl)pyridin-2-yl)-2-fluoro-4-methylbenzamide]
form change after heating ([1]; heating to about 110° C.): No form change | form change after heating ([1]; heating up to about 180° C.): re-crystallizes to Compound I Form VI

Cc1cc(F)c(C(=O)Nc2cccc(-c3nncn3C(C)C)n2)cc1-n1cnc(C2CC2)c1 [Compound I Form IX, 5-(4-cyclopropyl-1H-imidazol-1-yl)-N-(6-(4-isopropyl-4H-1,2,4-triazol-3-yl)pyridin-2-yl)-2-fluoro-4-methylbenzamide]
form change at ambient conditions [1]: converts to Form I

Cc1cc(F)c(C(=O)Nc2cccc(-c3nncn3C(C)C)n2)cc1-n1cnc(C2CC2)c1 [Compound I Form V, 5-(4-cyclopropyl-1H-imidazol-1-yl)-N-(6-(4-isopropyl-4H-1,2,4-triazol-3-yl)pyridin-2-yl)-2-fluoro-4-methylbenzamide]
form change upon drying [1]: readily desolvates to Compound I Form II | form change upon drying ([1]; listed as Form V): converting to Form II

Cc1cc(F)c(C(=O)Nc2cccc(-c3nncn3C(C)C)n2)cc1-n1cnc(C2CC2)c1 [Compound I Form VII, 5-(4-cyclopropyl-1H-imidazol-1-yl)-N-(6-(4-isopropyl-4H-1,2,4-triazol-3-yl)pyridin-2-yl)-2-fluoro-4-methylbenzamide]
outcome of competitive slurry with Compound I Form I [2]: full conversion of Compound I Form VII to Compound I Form I | form change at ambient conditions [1]: rapidly converts back to Compound I Form IV

Cc1cc(F)c(C(=O)Nc2cccc(-c3nncn3C(C)C)n2)cc1-n1cnc(C2CC2)c1 [Compound I Form VIII, 5-(4-cyclopropyl-1H-imidazol-1-yl)-N-(6-(4-isopropyl-4H-1,2,4-triazol-3-yl)pyridin-2-yl)-2-fluoro-4-methylbenzamide]
form change at ambient conditions [1]: rapidly loses water and converts to Compound I Form VI

Cc1cc(F)c(C(=O)Nc2cccc(-c3nncn3C(C)C)n2)cc1-n1cnc(C2CC2)c1.O=C(O)/C=C\C(=O)O [Compound I Maleate Form I, 5-(4-cyclopropyl-1H-imidazol-1-yl)-N-(6-(4-isopropyl-4H-1,2,4-triazol-3-yl)pyridin-2-yl)-2-fluoro-4-methylbenzamide maleate]
deliquescence in high humidity stress test [3]: did not show any evidence of deliquescence

CS(=O)(=O)O.Cc1cc(F)c(C(=O)Nc2cccc(-c3nncn3C(C)C)n2)cc1-n1cnc(C2CC2)c1 [Compound I Mesylate Form I, 5-(4-cyclopropyl-1H-imidazol-1-yl)-N-(6-(4-isopropyl-4H-1,2,4-triazol-3-yl)pyridin-2-yl)-2-fluoro-4-methylbenzamide mesylate]
deliquescence in high humidity stress test [3]: did not show any evidence of deliquescence

Cc1cc(F)c(C(=O)Nc2cccc(-c3nncn3C(C)C)n2)cc1-n1cnc(C2CC2)c1.O=C(O)C(=O)O [Compound I Oxalate Form I, 5-(4-cyclopropyl-1H-imidazol-1-yl)-N-(6-(4-isopropyl-4H-1,2,4-triazol-3-yl)pyridin-2-yl)-2-fluoro-4-methylbenzamide oxalate]
deliquescence in high humidity stress test [3]: did not show any evidence of deliquescence

Cc1cc(F)c(C(=O)Nc2cccc(-c3nncn3C(C)C)n2)cc1-n1cnc(C2CC2)c1.O=C(O)CCC(=O)O [Compound I Succinate Form I, 5-(4-cyclopropyl-1H-imidazol-1-yl)-N-(6-(4-isopropyl-4H-1,2,4-triazol-3-yl)pyridin-2-yl)-2-fluoro-4-methylbenzamide succinate]
deliquescence in high humidity stress test [3]: did not show any evidence of deliquescence

Cc1cc(F)c(C(=O)Nc2cccc(-c3nncn3C(C)C)n2)cc1-n1cnc(C2CC2)c1.O=S(=O)(O)O [Compound I Sulfate Form I, 5-(4-cyclopropyl-1H-imidazol-1-yl)-N-(6-(4-isopropyl-4H-1,2,4-triazol-3-yl)pyridin-2-yl)-2-fluoro-4-methylbenzamide sulfate]
deliquescence in high humidity stress test [3]: did not show any evidence of deliquescence

Cc1cc(F)c(C(=O)Nc2cccc(-c3nncn3C(C)C)n2)cc1-n1cnc(C2CC2)c1.Cc1ccc(S(=O)(=O)O)cc1 [Compound I Tosylate Form I, 5-(4-cyclopropyl-1H-imidazol-1-yl)-N-(6-(4-isopropyl-4H-1,2,4-triazol-3-yl)pyridin-2-yl)-2-fluoro-4-methylbenzamide tosylate]
deliquescence in high humidity stress test [3]: did not show any evidence of deliquescence

Cc1cc(F)c(C(=O)Nc2cccc(-c3nncn3C(C)C)n2)cc1-n1cnc(C2CC2)c1 [Compound I, 5-(4-cyclopropyl-1H-imidazol-1-yl)-N-(6-(4-isopropyl-4H-1,2,4-triazol-3-yl)pyridin-2-yl)-2-fluoro-4-methylbenzamide]
14+ Day XRPD ([4]; suspended in 2-propanol at RT): Form I | 24 Hour XRPD ([4]; suspended in 2-propanol at RT): Form I | 14+ Day XRPD ([4]; suspended in ACN at RT): Form I | 24 Hour XRPD ([4]; suspended in ACN at RT): Form I | 24 Hour XRPD ([4]; suspended in DCM at RT): V, II | 14+ Day XRPD ([4]; suspended in EtOAc at RT): Form I | 24 Hour XRPD ([4]; suspended in EtOAc at RT): Form I | 14+ Day XRPD ([4]; suspended in Ethanol at RT): Form I | 24 Hour XRPD ([4]; suspended in Ethanol at RT): Form I | 14+ Day XRPD ([4]; suspended in IPAC at RT): Form I | 24 Hour XRPD ([4]; suspended in IPAC at RT): Form I | 14+ Day XRPD ([4]; suspended in MTBE at RT): Form I | 24 Hour XRPD ([4]; suspended in MTBE at RT): Form I | 14+ Day XRPD ([4]; suspended in THF at RT): Form I | 24 Hour XRPD ([4]; suspended in THF at RT): Form I | 14+ Day XRPD ([4]; suspended in acetone at RT): Form I | 24 Hour XRPD ([4]; suspended in acetone at RT): Form I | 14+ Day XRPD ([4]; suspended in methanol at RT): Form I | 24 Hour XRPD ([4]; suspended in methanol at RT): Form I | 14+ Day XRPD ([4]; suspended in n-heptane at RT): Form I | 24 Hour XRPD ([4]; suspended in n-heptane at RT): Form I | 14+ Day XRPD ([4]; suspended in water at RT): Form I | 24 Hour XRPD ([4]; suspended in water at RT): Form I | solubility [5]: ~20 mg/mL (≈ 44.9 mM)
